In paper PMC7035334, “Effects of SDS on the activity and conformation of protein tyrosine phosphatase from thermus thermophilus HB27” (Scientific Reports, 2020):

Target: T1, PTPase from thermus thermophilus HB27 (Thermus thermophilus, UniProt Q72JF6)
T1 construct: gene TT_C0816; recombinant, cloned into pET-28a(+), E. coli BL21(DE3), purified; LMW PTPase EC 3.1.3.48; P-loop CLGNICRS, residues Cys11, Cys16, Arg17, Asp123 (Tt1001)
T1 sequence (Q72JF6 1-161): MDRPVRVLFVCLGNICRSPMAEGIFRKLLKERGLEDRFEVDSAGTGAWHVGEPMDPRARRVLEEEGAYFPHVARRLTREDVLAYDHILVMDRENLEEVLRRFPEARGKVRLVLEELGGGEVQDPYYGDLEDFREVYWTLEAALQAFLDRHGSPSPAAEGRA
Experiment: residual pNPP phosphatase activity, absorbance […] nm
Format: biochemical

CCCCCCCCCCCCOS(=O)(=O)O [SDS]
IC50: 11.3 µM
